From PubChem BioAssay AID1845208 (Molecular Pharmacology Branch, DTP, NCI, 2023)
pIC50: −log10 of the molar value.

Test system: NCI-H196 SCLC complex tumor spheroid viability
Assay: Anticancer human tumor NCI-H196 cell line growth inhibition;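 further: spheroids exposed to compounds for 7 days before readout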;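 on viability, T/C: 100% = DMSO vehicle control wells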
Conditions: for pIC50: curve of first compound; for viability, T/C: stronger effect = lower value
How it was run: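 Single agents and combinations were tested on spheroids built from tumor cells plus HUVEC and hMSC, at half-log dilutions starting at or near clinical Cmax, else 10 microM; final DMSO 0.25% (v/v).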

[1] = second compound 30 pM, first compound 0.0316 µM
[2] = second compound 30 pM, first compound 0.1 µM
[3] = second compound 30 pM, first compound 0.316 µM
[4] = second compound 30 pM, first compound 1 µM
[5] = second compound 30 pM, first compound 3.16 µM
[6] = second compound 30 pM, first compound 10 µM
[7] = second compound 94.9 pM, first compound 0.0316 µM
[8] = second compound 94.9 pM, first compound 0.1 µM
[9] = second compound 94.9 pM, first compound 0.316 µM
[10] = second compound 94.9 pM, first compound 1 µM
[11] = second compound 94.9 pM, first compound 3.16 µM
[12] = second compound 94.9 pM, first compound 10 µM
[13] = second compound 0.0003 µM, first compound 0.0316 µM
[14] = second compound 0.0003 µM, first compound 0.1 µM
[15] = second compound 0.0003 µM, first compound 0.316 µM
[16] = second compound 0.0003 µM, first compound 1 µM
[17] = second compound 0.0003 µM, first compound 3.16 µM
[18] = second compound 0.0003 µM, first compound 10 µM
[19] = second compound 0.000949 µM, first compound 0.0316 µM
[20] = second compound 0.000949 µM, first compound 0.1 µM
[21] = second compound 0.000949 µM, first compound 0.316 µM
[22] = second compound 0.000949 µM, first compound 1 µM
[23] = second compound 0.000949 µM, first compound 3.16 µM
[24] = second compound 0.000949 µM, first compound 10 µM
[25] = second compound 0.003 µM, first compound 0.0316 µM
[26] = second compound 0.003 µM, first compound 0.1 µM
[27] = second compound 0.003 µM, first compound 0.316 µM
[28] = second compound 0.003 µM, first compound 1 µM
[29] = second compound 0.003 µM, first compound 3.16 µM
[30] = second compound 0.003 µM, first compound 10 µM

Row | SMILES | pIC50 (second compound 30 pM) | pIC50 (second compound 94.9 pM) | pIC50 (second compound 0.0003 µM) | pIC50 (second compound 0.000949 µM) | pIC50 (second compound 0.003 µM) | viability, T/C [1] [%] | viability, T/C [2] [%] | viability, T/C [3] [%] | viability, T/C [4] [%] | viability, T/C [5] [%] | viability, T/C [6] [%] | viability, T/C [7] [%] | viability, T/C [8] [%] | viability, T/C [9] [%] | viability, T/C [10] [%] | viability, T/C [11] [%] | viability, T/C [12] [%] | viability, T/C [13] [%] | viability, T/C [14] [%] | viability, T/C [15] [%] | also measured
1 | CC(C)n1c(=O)n(C)c2cnc3cc(F)c(-c4ccc(OCCCN5CCCCC5)nc4)cc3c21 + COc1cc2c(cc1O)CCNC21CSC2c3c(OC(C)=O)c(C)c4c(c3C(COC1=O)N1C(O)C3Cc5cc(C)c(OC)c(O)c5C(C21)N3C)OCO4 | < 5.00 | < 5.00 | < 5.00 | < 5.00 | > 7.50 | 104 | 106 | 106 | 104 | 114 | 107 | 106 | 107 | 105 | 107 | 123 | 112 | 103 | 112 | 111 | viability, T/C [16]: 112%; viability, T/C [17]: 116%; viability, T/C [18]: 104%; viability, T/C [19]: 93.8%; viability, T/C [20]: 97.7%; viability, T/C [21]: 92.6%; viability, T/C [22]: 93.7%; viability, T/C [23]: 106%; viability, T/C [24]: 95.2%; viability, T/C [25]: 7%; viability, T/C [26]: 6.41%; viability, T/C [27]: 9.42%; viability, T/C [28]: 3.31%; viability, T/C [29]: 2.99%; viability, T/C [30]: 3.29%
2 | CC1COCCN1c1cc(-c2ccnn2C)c2ccnc(-c3ccn[nH]3)c2n1 (stereo not given) + COc1cc2c(cc1O)CCNC21CSC2c3c(OC(C)=O)c(C)c4c(c3C(COC1=O)N1C(O)C3Cc5cc(C)c(OC)c(O)c5C(C21)N3C)OCO4 | 5.38 | 5.46 | 5.60 | 6.15 | > 7.50 | 90.5 | 74.5 | 67.2 | 56.7 | 51.8 | 46.3 | 89.1 | 73.8 | 67 | 58 | 50.8 | 44.5 | 81.8 | 67.1 | 64 | viability, T/C [16]: 59.2%; viability, T/C [17]: 45.9%; viability, T/C [18]: 42.5%; viability, T/C [19]: 72.2%; viability, T/C [20]: 64%; viability, T/C [21]: 56.3%; viability, T/C [22]: 51.7%; viability, T/C [23]: 31.9%; viability, T/C [24]: 32.6%; viability, T/C [25]: 9.26%; viability, T/C [26]: 6.28%; viability, T/C [27]: 10.1%; viability, T/C [28]: 3.62%; viability, T/C [29]: 0.78%; viability, T/C [30]: 0.39%
3 | COc1cc(C)[nH]c(=O)c1CN1CCc2c(Cl)cc(C(OC)C3COC3)c(Cl)c2C1=O (stereo not given) + COc1cc2c(cc1O)CCNC21CSC2c3c(OC(C)=O)c(C)c4c(c3C(COC1=O)N1C(O)C3Cc5cc(C)c(OC)c(O)c5C(C21)N3C)OCO4 | < 5.00 | < 5.00 | < 5.00 | < 5.00 | > 7.50 | 104 | 101 | 95.8 | 101 | 97.8 | 98.4 | 107 | 96.5 | 103 | 95.4 | 99.1 | 104 | 100 | 105 | 98.8 | viability, T/C [16]: 97.1%; viability, T/C [17]: 94.6%; viability, T/C [18]: 97.8%; viability, T/C [19]: 83.7%; viability, T/C [20]: 80.3%; viability, T/C [21]: 83%; viability, T/C [22]: 80.9%; viability, T/C [23]: 87%; viability, T/C [24]: 77.9%; viability, T/C [25]: 18.9%; viability, T/C [26]: 5.38%; viability, T/C [27]: 7.56%; viability, T/C [28]: 12.5%; viability, T/C [29]: 5.22%; viability, T/C [30]: 2.69%
4 | COc1ccc([C@@H](O)c2cc(-c3ncnc4cc(N5CCOCC5)ccc34)c(F)cc2Cl)nn1 + COc1cc2c(cc1O)CCNC21CSC2c3c(OC(C)=O)c(C)c4c(c3C(COC1=O)N1C(O)C3Cc5cc(C)c(OC)c(O)c5C(C21)N3C)OCO4 | 5.04 | 5.14 | 5.53 | 6.01 | > 7.50 | 103 | 94.9 | 93.8 | 77.8 | 62.6 | 49 | 106 | 107 | 93.6 | 75.4 | 60 | 46 | 99 | 96.7 | 91.1 | viability, T/C [16]: 69.5%; viability, T/C [17]: 50.2%; viability, T/C [18]: 32.5%; viability, T/C [19]: 81.8%; viability, T/C [20]: 80.6%; viability, T/C [21]: 78.1%; viability, T/C [22]: 45.3%; viability, T/C [23]: 26.6%; viability, T/C [24]: 9.62%; viability, T/C [25]: 8.41%; viability, T/C [26]: 3.38%; viability, T/C [27]: 3.43%; viability, T/C [28]: 0.71%; viability, T/C [29]: 0.82%; viability, T/C [30]: 0.59%
5 | [2H]c1nc(C)nc([2H])c1-c1cc(NC[C@@H](C)c2cccc3c(C(=O)NC)ccnc23)ncn1 + COc1cc2c(cc1O)CCNC21CSC2c3c(OC(C)=O)c(C)c4c(c3C(COC1=O)N1C(O)C3Cc5cc(C)c(OC)c(O)c5C(C21)N3C)OCO4 | < 5.00 | < 5.00 | < 5.00 | < 5.00 | > 7.50 | 102 | 102 | 101 | 104 | 99.4 | 97.6 | 105 | 108 | 101 | 106 | 97.8 | 104 | 102 | 106 | 106 | viability, T/C [16]: 105%; viability, T/C [17]: 104%; viability, T/C [18]: 105%; viability, T/C [19]: 92.5%; viability, T/C [20]: 86%; viability, T/C [21]: 88.2%; viability, T/C [22]: 83.5%; viability, T/C [23]: 83.4%; viability, T/C [24]: 93.7%; viability, T/C [25]: 5.55%; viability, T/C [26]: 6.42%; viability, T/C [27]: 3.96%; viability, T/C [28]: 6.02%; viability, T/C [29]: 4.53%; viability, T/C [30]: 2.75%
